According to US5776859A, “Sodium channel active novel compounds and related processes and bioassay techniques” (priority 1995, dated 1998):
Like-named read-outs stand apart in the source and are kept apart here.

Tests used:
[1] = test system: sodium channel; experiment: Temperature-dependent circular dichroism at 222 nM (helix-coil transition); assay type: biochemical, beef (bovine brain); details: 222 nm wavelength; for % Loss of Helix (35° to 40° C.) / % Loss of Helix (30° to 35° C.): fresh AChE; for % Loss of Helix (35° to 40° C.): control 4.7 (pilocarpine), 4.6 (lidocaine); for % Loss of Helix (30° to 35° C.): control 21.8 (pilocarpine), 12.1 (lidocaine); for effect on alpha helix from 35° C. to 40° C. / effect on helical transition normally observed between 30°-35° C.: beef brain nerve cell protein preparation; for effect on helical transition normally observed between 30°-35° C.: 15° C. to 60° C.
Text: As disclosed in PCT/US93/05792, published Jan. 6, 1994, one can identify compounds with potential analgesic effect by using circular dichroism to bioassay the interaction of molecules with ion channels, including sodium channels. Likewise, this bioassay technique is applicable to the thiophene compounds of the present invention.
To perform this method, solubilized nerve cell membrane proteins and acetylcholinesterase are purified using ion exchange and size exclusion chromatography. Then, one forms a mixture of a nerve cell protein and a compound capable of blocking or preventing the normal function of preferably the sodium channel in an excitable cell, and subjects that mixture to circular dichroism at a wave length of […] wave length. The transition of molar ellipticity is measured while varying the temperature of the mixture between 25°-50° C. The transition of molar ellipticity of the mixture is compared with the transition of molar ellipticity of a control nerve cell protein without the compound capable of blocking or preventing the normal function of the sodium channel in an excitable cell. The alpha helix content, as measured at […], is used to monitor the effect of temperature change on the ion channel's conformational change.
However, when a sodium channel active molecule is added to the membrane preparation, the temperature-dependent helix transition observed using circular dichroism is altered. […] These compounds, therefore, seem to stabilize the helix conformation of the sodium channel and to prevent the temperature-dependent uncoiling of alpha helix between 30° C.-35° C.

[2] = cardiac patients, routine therapeutic administration of lidocaine; cited from earlier work
[3] = test system: rats; details: cited from earlier work
[4] = test system: mice; details: cited from earlier work
[5] = test system: animal; details: in vivo; cited from earlier work
[6] = test system: Salmonella strains TA98, TA100, TA1535 and TA97; details: cited from earlier work
[7] = test system: Fischer rats; details: cited from earlier work
[8] = test system: B6C3FI mice; details: cited from earlier work
[9] = surviving female mice, relative to controls

For `CCN(CC)CC(=O)Nc1c(C)cccc1C` [Lidocaine], the “% Loss of Helix (35° to 40° C.)” value [1] was 13.6%, the “% Loss of Helix (30° to 35° C.)” value [1] was 1.8% and the “effect on alpha helix from 35° C. to 40° C.” value [1] was “the alpha helix uncoils to equal the helix in the control sample”. The “effect on helical transition normally observed between 30°-35° C.” value [1] was “prevented the helical transition normally observed between 30°-35 °C” and the “2,6-xylidine in human serum hemoglobin adduct” value [2] was “high levels of 2,6-xylidine”.

In the case of `Cc1ccccc1N.Cl` [ortho-toluidine hydrochloride], the carcinogenicity [3] is listed as “carcinogenic in rats and mice” and the carcinogenicity [4] is listed as “carcinogenic in rats and mice”.

For `CC[C@@H]1C(=O)OC[C@@H]1Cc1cncn1C` [Pilocarpine], the “% Loss of Helix (35° to 40° C.)” value [1] was 17.5%, the “% Loss of Helix (30° to 35° C.)” value [1] was 7.1% and the “effect on alpha helix from 35° C. to 40° C.” value [1] was “the alpha helix uncoils to equal the helix in the control sample”. For the same compound, the “effect on helical transition normally observed between 30°-35° C.” value [1] was “prevented the helical transition normally observed between 30°-35 °C”.

In the case of `Cc1cccc(C)c1N` [2,6-xylidine], the carcinogenicity [5] is given as “established animal and probable human carcinogen”.

In the case of `c1ccsc1` [thiophene], the mutagenicity [6] is given as “does not function as a mutagen in this assay”, the “absolute lung weight and lung to brain weight ratio” value ([7]; all dose groups of both sexes surviving until study termination) is given as “decrease in the absolute lung weight and in the lung to brain weight ratio” and the mortality ([7]; male rats, 2000 and 4000 ppm, first week) is given as “mortality also occurred in the 2000 and 4000 ppm male exposure groups”. The “group mean body weight” value ([7]; rats of both sexes, relative to control) was “dose-related depression in group mean body weight relative to control”, the “clinical signs of toxicity” value ([7]; rats, 4000 ppm) was “rough haircoat, ocular discharge, nasal discharge, dyspnea, and staggering gait” and the “microscopic examination, lung” value ([7]; rats, 4000 ppm) was “chronic active inflammation of the lung”. For the same compound, the mortality ([7]; rats, 8000 ppm, one exposure) was “All rats exposed to 8000 ppm died following one exposure”, the “microscopic examination, liver” value ([7]; rats, all exposure groups, severity increasing with dose) was “necrotizing inflammation of the liver in all exposure groups with severity increasing with dose” and the “toxicity to liver and lung” value ([7]; summary of rat and mice studies, extremely high inhalation doses) was “shows toxicity to liver and lung”. For the same compound, the survival ([8]; female mice, 1000 ppm and 500 ppm) was “survived the study”, the “female mice died as a result of exposures” value ([8]; female mice, 2000 ppm) was 2/10 and the mortality ([8]; female mice, 8000 ppm and 4000 ppm) was “Total mortality”. The survival / mortality ([8]; male mice, all exposure levels, single exposure) was “died or were terminated in moribund condition following a single exposure”, the “microscopic pathology, hepatocytes” value ([8]; mice that died early (within several hours after first exposure)) was “centrilobular degeneration of hepatocytes” and the “microscopic pathology, cause of mortality” value ([8]; mice) was “mortality was attributed to liver toxicity”. For the same compound, the “other exposure-related microscopic lesions” value ([8]; mice) was “No other exposure-related microscopic lesions were found”, the “microscopic pathology, nose and nasal cavity” value ([8]; mice, more severe in mice that survived the study) was “Necrotizing inflammation of the nose and nasal cavity” and the “liver absolute and relative organ weights (liver-to-body and liver-to-brain weight ratios)” value [8, 9] was “increased relative to the controls”. The “thymus organ weight parameters” value [8, 9] was “reduced”, the “mean body weights or mean lung weights” value ([8]; surviving female mice) was “did not affect mean body weights or mean lung weights” and the signs of toxicity ([8]; surviving mice, 500 ppm and 1000 ppm) was “hypoactivity and abnormal posture”. The signs of toxicity ([8]; surviving mice, 2000 ppm) was “dyspnea” and the “microscopic pathology, hepatocytes” value ([8]; surviving mice, all exposure levels) was “centrilobular necrosis of hepatocytes”.
